Results published in ChEMBL document CHEMBL1135039, “A novel synthesis of 2-arylpyrrolo[1,2-a]pyrimid-7-ones and their structure-activity relationships as potent GnRH receptor antagonists” (Bioorg Med Chem Lett, 2002).

Target: T1, Gonadotropin-releasing hormone receptor (Homo sapiens, UniProt P30968)
T1 sequence (P30968 whole entry): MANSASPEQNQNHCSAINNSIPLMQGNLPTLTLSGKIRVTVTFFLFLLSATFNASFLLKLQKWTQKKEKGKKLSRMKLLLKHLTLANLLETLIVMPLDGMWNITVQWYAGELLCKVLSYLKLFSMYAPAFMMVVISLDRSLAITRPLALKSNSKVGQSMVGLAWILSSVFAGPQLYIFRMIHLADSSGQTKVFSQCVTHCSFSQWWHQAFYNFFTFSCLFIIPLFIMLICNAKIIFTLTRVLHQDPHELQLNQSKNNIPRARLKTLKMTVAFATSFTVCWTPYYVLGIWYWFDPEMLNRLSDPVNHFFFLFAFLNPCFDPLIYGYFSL
Assay: Binding affinity to human gonadotropin-releasing hormone (hGnRH) receptor expressed in HEK293 cells using des-Gly10[125I-Tyr,5DLeu,6NMeLeu,7Pro9-NEt]GnRH radioligand
Type: cell-based

| SMILES | Ki [µM] |
| --- | --- |
| CCOC(=O)c1cn(Cc2ccccc2F)c2cc(-c3ccc(OC)cc3)c(CN(C)Cc3ccccc3)n2c1=O | 0.4 |
| CCOC(=O)c1cn(Cc2ccccc2F)c2cc(-c3ccc([N+](=O)[O-])cc3)c(CN(C)Cc3ccccc3)n2c1=O | 0.45 |
| CCC(CC)OC(=O)c1cn(Cc2ccccc2F)c2cc(-c3ccc(N)cc3)c(CN(C)Cc3ccccc3)n2c1=O | 0.1 |
| CCOC(=O)c1cn(Cc2ccccc2F)c2cc(-c3ccc(N)cc3)c(CN(C)Cc3ccccc3)n2c1=O | 0.19 |
| CCCC(=O)Nc1ccc(-c2cc3n(Cc4ccccc4F)cc(C(=O)NCCCc4ccccc4)c(=O)n3c2CN(C)CCc2ccccn2)cc1 | 0.0011 |
| CCCC(=O)Nc1ccc(-c2cc3n(Cc4ccccc4F)cc(C(=O)NC4CCCCC4)c(=O)n3c2CN(C)CCc2ccccn2)cc1 | 0.032 |
| CN(CCc1ccccn1)Cc1c(-c2ccc([N+](=O)[O-])cc2)cc2n(Cc3ccccc3F)cc(-c3nc(C(C)(C)C)co3)c(=O)n12 | 0.064 |
| CN(CCc1ccccn1)Cc1c(-c2ccc([N+](=O)[O-])cc2)cc2n(Cc3ccccc3F)cc(C3=NC(C)(C)CO3)c(=O)n12 | 0.27 |
| CCOC(=O)c1cn(Cc2ccccc2F)c2cc(-c3ccc(NC(C)=O)cc3)c(CN(C)Cc3ccccc3)n2c1=O | 0.042 |
| CCOC(=O)c1cn(Cc2ccccc2F)c2cc(-c3ccc(OC)cc3)c(CN(C)CCc3ccccn3)n2c1=O | 0.055 |
| CCOC(=O)c1cn(Cc2ccccc2F)c2cc(-c3ccc(NC(=O)C(C)C)cc3)c(CN(C)CCc3ccccn3)n2c1=O | 0.014 |
| CCOC(=O)c1cn(Cc2ccccc2F)c2cc(-c3ccc(NC(=O)C(C)C)cc3)c(CN(C)Cc3ccccc3)n2c1=O | 0.044 |
| CCC(CC)OC(=O)c1cn(Cc2ccccc2F)c2cc(-c3ccc(OC)cc3)c(CN(C)Cc3ccccc3)n2c1=O | 0.062 |
| CCCC(=O)Nc1ccc(-c2cc3n(Cc4ccccc4F)cc(C(=O)NCCCc4ccccc4)c(=O)n3c2CN(C)Cc2ccccc2)cc1 | 0.017 |
| CCCC(=O)Nc1ccc(-c2cc3n(Cc4ccccc4F)cc(C(=O)NC4CCCC4)c(=O)n3c2CN(C)CCc2ccccn2)cc1 | 0.0092 |

Next, values leading:

| Ki [µM] | SMILES |
| --- | --- |
| 0.021 | CCCC(=O)Nc1ccc(-c2cc3n(Cc4ccccc4F)cc(C(=O)NC(CC)CC)c(=O)n3c2CN(C)CCc2ccccn2)cc1 |
| 0.0012 | CCCC(=O)Nc1ccc(-c2cc3n(Cc4ccccc4F)cc(C(=O)OCC)c(=O)n3c2CN(C)CCc2ccccn2)cc1 |
| 0.004 | CCC(CC)OC(=O)c1cn(Cc2ccccc2F)c2cc(-c3ccc(NC(C)=O)cc3)c(CN(C)Cc3ccccc3)n2c1=O |
| 0.01 | CCCCNC(=O)c1cn(Cc2ccccc2F)c2cc(-c3ccc(NC(=O)CCC)cc3)c(CN(C)CCc3ccccn3)n2c1=O |
| 0.13 | CCCC(=O)Nc1ccc(-c2cc3n(Cc4ccccc4F)cc(C(=O)OC(CC)CC)c(=O)n3c2CN(C)C)cc1 |
| 0.44 | CCCCNC(=O)c1cn(Cc2ccccc2F)c2cc(-c3ccc(NC(=O)CCC)cc3)c(CN(C)CCN(CC)CC)n2c1=O |
| 0.0028 | CCC(CC)OC(=O)c1cn(Cc2ccccc2F)c2cc(-c3ccc(NC(C)=O)cc3)c(CN(C)CCc3ccccn3)n2c1=O |
| 0.0038 | CCCC(=O)Nc1ccc(-c2cc3n(Cc4ccccc4F)cc(C(=O)OC(CC)CC)c(=O)n3c2CN(C)Cc2ccccc2)cc1 |
| 0.014 | CCC(CC)OC(=O)c1cn(Cc2ccccc2F)c2cc(-c3ccc(OC)cc3)c(CN(C)CCc3ccccn3)n2c1=O |
| 0.0021 | CCCC(=O)Nc1ccc(-c2cc3n(Cc4ccccc4F)cc(C(=O)OC(CC)CC)c(=O)n3c2CN(C)CCc2ccccc2)cc1 |
| 0.154 | CCCCNC(=O)c1cn(Cc2ccccc2F)c2cc(-c3ccc(NC(=O)CCC)cc3)c(CN(C)Cc3ccccc3)n2c1=O |
| 0.0033 | CCCCCCNC(=O)c1cn(Cc2ccccc2F)c2cc(-c3ccc(NC(=O)CCC)cc3)c(CN(C)CCc3ccccn3)n2c1=O |
| 0.0027 | CCCC(=O)Nc1ccc(-c2cc3n(Cc4ccccc4F)cc(C(=O)OC(CC)CC)c(=O)n3c2CN(C)CCc2ccccn2)cc1 |
| 0.63 | CCCC(=O)Nc1ccc(-c2cc3n(Cc4ccccc4F)cc(C(=O)NCCOC)c(=O)n3c2CN(C)CCc2ccccn2)cc1 |
| 0.0058 | CCCC(=O)Nc1ccc(-c2cc3n(Cc4ccccc4F)cc(C(=O)OC(CC)CC)c(=O)n3c2CN(C)CCN(CC)CC)cc1 |
